# Assay results published in patent US20250340567A1, “Next Generation Synthetic Transcription Factors” (WISCONSIN ALUMNI RESEARCH FOUNDATION, priority 2018, published 2025).
# Columns and labels:
# [1] = molecular target: BRD4(1) first bromodomain (Homo sapiens, UniProt O60885); conditions: cited from earlier work
# [2] = molecular target: BRD4(2) second bromodomain (Homo sapiens, UniProt O60885); conditions: cited from earlier work
# BRD2 = BRD2 (Homo sapiens, UniProt P25440); conditions: cited from earlier work
# Chain of BRD2 (P25440 whole entry, species assumed): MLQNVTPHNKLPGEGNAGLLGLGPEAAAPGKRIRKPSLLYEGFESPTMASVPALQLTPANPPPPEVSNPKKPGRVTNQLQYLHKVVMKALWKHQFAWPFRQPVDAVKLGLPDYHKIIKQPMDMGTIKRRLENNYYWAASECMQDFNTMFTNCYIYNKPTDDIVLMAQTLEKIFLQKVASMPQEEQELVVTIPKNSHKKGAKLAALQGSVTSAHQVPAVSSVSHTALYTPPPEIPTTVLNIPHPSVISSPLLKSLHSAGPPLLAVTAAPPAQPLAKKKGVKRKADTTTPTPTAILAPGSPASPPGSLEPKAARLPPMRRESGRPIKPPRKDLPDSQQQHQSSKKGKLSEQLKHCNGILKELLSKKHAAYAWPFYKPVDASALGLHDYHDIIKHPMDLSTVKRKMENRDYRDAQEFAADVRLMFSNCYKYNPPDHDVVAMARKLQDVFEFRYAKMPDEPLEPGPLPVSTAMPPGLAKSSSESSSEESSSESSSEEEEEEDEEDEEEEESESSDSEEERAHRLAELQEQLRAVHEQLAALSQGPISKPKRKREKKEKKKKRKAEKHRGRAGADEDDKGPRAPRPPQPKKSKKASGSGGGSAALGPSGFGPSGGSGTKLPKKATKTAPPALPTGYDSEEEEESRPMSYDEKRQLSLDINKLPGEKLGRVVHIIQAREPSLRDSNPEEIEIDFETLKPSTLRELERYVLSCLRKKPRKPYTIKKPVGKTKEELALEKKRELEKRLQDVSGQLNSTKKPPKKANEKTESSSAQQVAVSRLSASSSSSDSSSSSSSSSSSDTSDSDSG
# BRD3 = BRD3 (Homo sapiens, UniProt Q15059); conditions: cited from earlier work
# Chain of BRD3 (Q15059 whole entry, species assumed): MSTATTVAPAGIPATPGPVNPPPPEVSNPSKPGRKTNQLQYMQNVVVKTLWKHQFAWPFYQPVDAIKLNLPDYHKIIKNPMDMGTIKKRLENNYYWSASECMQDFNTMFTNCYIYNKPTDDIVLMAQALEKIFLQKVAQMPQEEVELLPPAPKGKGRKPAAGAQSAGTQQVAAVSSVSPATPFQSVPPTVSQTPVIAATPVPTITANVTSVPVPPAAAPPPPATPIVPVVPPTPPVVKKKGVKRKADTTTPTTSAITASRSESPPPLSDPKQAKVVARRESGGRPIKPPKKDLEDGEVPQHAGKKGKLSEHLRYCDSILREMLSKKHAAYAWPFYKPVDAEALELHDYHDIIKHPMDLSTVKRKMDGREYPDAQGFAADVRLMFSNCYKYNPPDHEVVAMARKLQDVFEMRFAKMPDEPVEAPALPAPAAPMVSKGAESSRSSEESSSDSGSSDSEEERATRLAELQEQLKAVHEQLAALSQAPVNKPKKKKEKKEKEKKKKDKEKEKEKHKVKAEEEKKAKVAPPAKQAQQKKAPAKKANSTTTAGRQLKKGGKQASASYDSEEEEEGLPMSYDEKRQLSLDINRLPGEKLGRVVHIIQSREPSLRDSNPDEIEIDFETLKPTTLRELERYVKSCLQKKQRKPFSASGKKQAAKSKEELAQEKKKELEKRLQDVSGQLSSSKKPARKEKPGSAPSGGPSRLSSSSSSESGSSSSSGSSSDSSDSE
# BET bromodomain = conditions: read-out: IC50 BET bromodomain; cited from earlier work
# BET BD1 = conditions: cited from earlier work
# BET BD2 = conditions: cited from earlier work
# [3] = Stability of synthetic transcription factors on storage, followed by mass spectra; format: physicochemical; conditions: at 18° C., mass spectra (FIG. 2)
# Experimental: In as little as 5 days at 18° C., SynTEF1 begins to break down (FIG. 2).
# Other synthetic transcription factors having an ether bond as described herein between the bromodomain binding moiety and the linker also have shown improved stability.
compound,measurement,setting,value
Cc1sc2c(c1C)C(c1ccc(Cl)cc1)=N[C@@H](CC(=O)NC(C)(C)C)c1nnc(C)n1-2 [(+)-JQ1],IC50,[1],77 nM
same,IC50,[2],33 nM
CC(=O)N1c2ccc(-c3ccc(C(=O)O)cc3)cc2[C@H](Nc2ccc(Cl)cc2)C[C@@H]1C [I-BET726],IC50,BRD2,41 nM
same,IC50,BRD3,31 nM
CCNC(=O)C[C@@H]1N=C(c2ccc(Cl)cc2)c2cc(OC)ccc2-n2c(C)nnc21 [I-BET762],IC50,BET bromodomain,32.5 to 42.5 nM
COc1cc(OC)c2c(=O)[nH]c(-c3cc(C)c(OCCO)c(C)c3)nc2c1 [RVX208],IC50,BET BD1,87000 nM
same,IC50,BET BD2,510 nM
Cc1sc2c(c1C)C(c1ccc(Cl)cc1)=N[C@@H](CC(=O)NCCOCCOCCOCCOCCOCCOCCC(=O)NCCCN(C)CCCNC(=O)CCNC(=O)c1nc(NC(=O)CCNC(=O)c3cc(NC(=O)c4nc(NC(=O)CCNC(=O)c5cc(NC(=O)c6nccn6C)cn5C)cn4C)cn3C)cn1C)c1nnc(C)n1-2 [SynTEF1],time at which the compound begins to break down,[3],≤ 5 days
